These are literature values, as cited in patent publication US20220400744A1, “POUCHED PRODUCT COMPRISING DISSOLVABLE COMPOSITION” (NICOVENTURES TRADING LIMITED, priority 2021, published 2022).

Like-named read-outs stand apart in the source and are kept apart here.

The conditions of data set [1]: for solubility in water / aqueous environment: water or aqueous environment (e.g., saliva).
The conditions of data set [2]: for logP: Table 1, partition coefficient between octanol and water.
The conditions of data set [3]: when isolated; isomerizes to trans-bixin.

Consider `CC(/C=C/C=C(C)/C=C/C(=O)O)=C\C=C\C=C(C)\C=C\C=C(C)\C=C\C(=O)O` (stereo in doubt) [norbixin, (2E,4E,6E,8E,10E,12E,14E,16E,18E)-4,8,13,17-tetramethylicosa-2,4,6,8,10,12,14,16,18-nonaenedioic acid], for which the “solubility in water / aqueous environment” value in data set [1] was “water soluble”.
Regarding `C=C(C)[C@@H]1CCC(C)=C[C@H]1c1c(O)cc(CCCCC)cc1O` [CBD, cannabidiol, reference compound], the “solubility in water / aqueous environment” value in data set [1] is given as “insoluble”. Besides, the logP value entry in data set [2] (CBD) is listed as “about 6.5”.
In the case of `COC(=O)/C=C/C(C)=C\C=C\C(C)=C\C=C\C=C(C)\C=C\C=C(C)\C=C\C(=O)O` [bixin, (2E,4E,6E,8E,10E,12E,14E,16Z,18E)-20-methoxy-4,8,13,17-tetramethyl-20-oxoicosa-2,4,6,8,10,12,14,16,18-nonaenoic acid], the “solubility in fats and alcohols” value in data set [1] (fats and alcohols) was “soluble”. The “solubility in water / aqueous environment” value in data set [1] is on record as “insoluble”. In addition, the chemical stability entry in data set [3] is on record as “chemically unstable”.
Regarding `CC(C)[C@@H]1CC[C@@H](C)C[C@H]1OC(=O)CCC(=O)O` [monomenthyl succinate], the logP (in general, a log measure of how a compound divides between an organic and an aqueous phase) in data set [2] is on record as 3.
`CN1CCCC1c1cccnc1` (centres unmarked) [nicotine, reference compound]: the partitioning into octanol entry in data set [2] (acidic pH, about 6.5 to about 4, protonated form) is on record as “lower partitioning into octanol”; in data set [2] (alkaline pH, about 7.5 to about 9, free base form), “high partitioning into octanol”.
ethyl benzoic acid: the logP in data set [2] is 2.9.
As to isopropyl benzoic acid, the lipophilicity (logP) in data set [2] is 3.5.
